Reference: patent US10155004B2, “17-hydroxy-17-pentafluoroethyl-estra-4,9(10)-dien-11-aryl derivatives, method of production thereof and use thereof for the treatment of diseases” (BAYER INTELLECTUAL PROPERTY GMBH, priority 2009, dated 2018)

Tests used:
[1] = target: T1, human progesterone receptor B (Homo sapiens, UniProt P06401); test: Progesterone receptor-antagonistic action in stably transfected SK-N-MC cells, MTV-LUC reporter (PR-B); format: cell-based; details: for Progesterone receptor B (PR-B) Efficacy: antagonistic efficacy vs 0.1 nmol/l promegestone; for IC50: antagonism of 0.1 nmol/l promegestone, 24 hours, LUC reporter, read-out: Progesterone receptor B (PR-B) Potency IC50
T1 construct: expressed in transfected cells; host or cells: SK-N-MC human neuroblastoma cells, stably transfected
T1 sequence (P06401 1-933): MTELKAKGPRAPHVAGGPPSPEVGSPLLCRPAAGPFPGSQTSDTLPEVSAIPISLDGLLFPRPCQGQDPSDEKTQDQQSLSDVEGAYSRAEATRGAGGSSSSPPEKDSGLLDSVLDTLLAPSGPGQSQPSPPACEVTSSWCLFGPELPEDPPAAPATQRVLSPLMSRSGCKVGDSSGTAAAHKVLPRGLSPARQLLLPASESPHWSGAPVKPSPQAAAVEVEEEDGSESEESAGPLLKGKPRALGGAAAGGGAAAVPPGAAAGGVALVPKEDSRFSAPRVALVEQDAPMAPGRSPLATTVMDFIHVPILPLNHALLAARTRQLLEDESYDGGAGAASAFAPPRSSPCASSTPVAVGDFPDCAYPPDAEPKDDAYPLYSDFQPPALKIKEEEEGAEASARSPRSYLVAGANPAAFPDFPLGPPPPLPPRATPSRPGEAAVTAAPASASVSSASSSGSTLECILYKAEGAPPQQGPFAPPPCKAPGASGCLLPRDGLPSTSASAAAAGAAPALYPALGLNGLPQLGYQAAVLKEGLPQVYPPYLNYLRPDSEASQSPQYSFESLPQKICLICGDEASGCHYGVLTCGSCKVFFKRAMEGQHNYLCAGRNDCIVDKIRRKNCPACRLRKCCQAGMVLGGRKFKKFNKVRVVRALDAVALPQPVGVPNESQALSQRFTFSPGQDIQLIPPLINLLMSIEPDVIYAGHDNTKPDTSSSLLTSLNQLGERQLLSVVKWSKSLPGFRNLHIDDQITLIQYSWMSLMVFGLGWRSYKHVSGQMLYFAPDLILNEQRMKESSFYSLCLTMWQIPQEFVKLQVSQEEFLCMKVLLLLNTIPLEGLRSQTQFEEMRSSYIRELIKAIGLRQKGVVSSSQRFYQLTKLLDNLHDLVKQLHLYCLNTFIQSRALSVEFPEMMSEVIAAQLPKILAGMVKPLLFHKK
Experimental: (§1) EXAMPLE 16 PROGESTERONE RECEPTOR-ANTAGONISTIC ACTION IN STABLE TRANSFECTANTS OF HUMAN NEUROBLASTOMA CELLS (SK-N-MC CELLS) WITH THE HUMAN PROGESTERONE A OR PROGESTERONE B RECEPTOR AND AN MTV-LUC REPORTER CONSTRUCT
(§2) SK-N-MC cells (human neuroblastoma cells), which have been stably transfected with plasmids, which express the human progesterone receptor B (pRChPR-B-neo) or the human progesterone receptor A (pRChPR-A-neo) and a reporter construct (pMMTV-LUC), were incubated for 24 hours either in the absence (negative control) or in the presence of increasing amounts of the respective test compound (0.01 nmol/l, 0.1 nmol/l 1 nmol/l, 10 nmol/l, 100 nmol/l and 1 μmol/l), in order to determine the agonistic efficacy. As positive control of reporter gene induction, the cells were treated with the synthetic gestagen promegestone (0.01 nmol/l, 0.1 nmol/l, 1 nmol/l, 10 nmol/l, 100 nmol/l and 1 μmol/l). For determination of the antagonistic activity, the cells were treated with 0.1 nmol/1 promegestone and additionally with increasing amounts of the respective test compound (0.01 nmol/l, 0.1 nmol/l, 1 nmol/l, 10 nmol/l, 100 nmol/l and 1 μmol/l). The activity of the LUC reporter gene (LUC=luciferase) was determined in the cell lysates and was measured as RLU (relative light units). All measured values are given as percentage efficacy and as EC50 or IC50 concentrations.
(§3) 11β-(4-Acetylphenyl)-20,20,21,21,21-pentafluoro-17-hydroxy-19-nor-17α-pregna-4,9-dien-3-one and 20,20,21,21,21-pentafluoro-17-hydroxy-11β-[4-(hydroxyacetyl)phenyl]-19-nor-17α-pregna-4,9-dien-3-one, very potent and therefore preferred examples from WO98/34947 and WO2008/058767, were tested as comparative compounds along with the test compound.

[2] = target: T2, human progesterone receptor A (Homo sapiens, UniProt P06401); test: Progesterone receptor-antagonistic action in stably transfected SK-N-MC cells, MTV-LUC reporter (PR-A); format: cell-based; details: for Progesterone receptor A (PR-A) Efficacy: antagonistic efficacy vs 0.1 nmol/l promegestone; for IC50: antagonism of 0.1 nmol/l promegestone, 24 hours, LUC reporter, read-out: Progesterone receptor A (PR-A) Potency IC50
T2 construct: expressed in transfected cells; host or cells: SK-N-MC human neuroblastoma cells, stably transfected
T2 sequence (P06401 1-769 isoform P06401-2): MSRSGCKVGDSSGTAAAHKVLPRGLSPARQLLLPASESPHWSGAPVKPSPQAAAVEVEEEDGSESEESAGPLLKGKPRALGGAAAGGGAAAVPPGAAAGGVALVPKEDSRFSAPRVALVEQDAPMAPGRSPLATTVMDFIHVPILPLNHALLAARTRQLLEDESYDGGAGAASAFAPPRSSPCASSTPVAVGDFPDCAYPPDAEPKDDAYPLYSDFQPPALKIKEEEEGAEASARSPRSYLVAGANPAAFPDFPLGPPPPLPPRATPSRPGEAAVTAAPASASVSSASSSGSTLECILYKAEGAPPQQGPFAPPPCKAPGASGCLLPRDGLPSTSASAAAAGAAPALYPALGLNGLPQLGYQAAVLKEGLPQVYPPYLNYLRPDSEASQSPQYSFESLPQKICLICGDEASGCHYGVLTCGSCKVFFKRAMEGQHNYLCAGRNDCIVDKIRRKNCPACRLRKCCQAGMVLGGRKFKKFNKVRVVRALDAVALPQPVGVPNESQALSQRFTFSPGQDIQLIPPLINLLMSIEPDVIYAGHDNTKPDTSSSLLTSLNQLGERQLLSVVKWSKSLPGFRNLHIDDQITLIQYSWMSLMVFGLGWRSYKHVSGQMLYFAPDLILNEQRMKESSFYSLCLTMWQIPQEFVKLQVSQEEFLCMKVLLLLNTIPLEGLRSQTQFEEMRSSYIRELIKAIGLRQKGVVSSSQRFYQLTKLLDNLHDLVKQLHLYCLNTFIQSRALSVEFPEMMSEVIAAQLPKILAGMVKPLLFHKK
Experimental: as §1, §2, §3

pregnant rats = test: Abortion test on female rats (termination of early pregnancy); format: in vivo, rat; details: d5-d7 p.c., autopsy d9 p.c.
Experimental: EXAMPLE 17 ABORTION TEST ON FEMALE RATS
The action of progesterone and of the progesterone receptor is a fundamental precondition for successful pregnancy or gestation in mammals. The progesterone-antagonistic action of the compounds according to the invention was tested on pregnant rats (6 rats per group) on day 5 to 7 post coitum with conventional housing and feeding conditions.
After successful hand mating, the pregnant animals (presence of sperm in the vaginal smear on day 1 of pregnancy=d1 p.c.) were randomized and divided into the treatment group and the control group. The animals then each received subcutaneously or orally 0.15; 0.5; 1.5 or 5 mg/kg of the test compound or 1.0 ml/kg of vehicle (benzyl benzoate/castor oil: 1+4 [v/v]) daily from day 5 to day 7 (d5-d7 p.c.).
Autopsy was carried out on day 9 (d9 p.c.). As a characteristic of progesterone receptor antagonistic action, the uterus was examined for the presence of nidation sites. Complete absence, or also the presence of pathological, haemorrhagic or otherwise abnormal nidation sites on day 9 (d9 p.c.) was assessed as abortion.

[3] = daily dose 0.5 mg/kg s.c. or p.o.
[4] = daily dose 1.5 mg/kg s.c. or p.o.
[5] = daily dose 5.0 mg/kg s.c. or p.o.

Row | IC50 [1] [nM] | IC50 [2] [nM] | Structure (SMILES) | Progesterone receptor B (PR-B) Efficacy [1] [%] | Progesterone receptor A (PR-A) Efficacy [2] [%] | other results
1 | – | 0.01 | CCSc1ccc([C@H]2C[C@@]3(C)C(CC[C@@]3(O)C(F)(F)C(F)(F)F)C3CCC4=CC(=O)CCC4=C32)cc1 (stereo partly drawn) [Example 2, (11β,17β)-11-[4-(ethylsulphanyl)phenyl]-17-hydroxy-17-(pentafluoroethyl)estra-4,9-dien-3-one] | – | – | –
2 | – | 0.01 | CN(C)S(=O)(=O)c1ccc(-c2ccc([C@H]3C[C@@]4(C)[C@@H](CC[C@@]4(O)C(F)(F)C(F)(F)F)[C@@H]4CCC5=CC(=O)CCC5=C43)cc2)cc1 [Example 14, 4′-[(11β,17β)-17-hydroxy-3-oxo-17-(pentafluoroethyl)estra-4,9-dien-11-yl]-N,N-dimethylbiphenyl-4-sulphonamide] | – | – | –
3 | 0.2 | 0.1 | CN(C)S(=O)(=O)c1ccc([C@H]2C[C@@]3(C)[C@@H](CC[C@@]3(O)C(F)(F)C(F)(F)F)[C@@H]3CCC4=CC(=O)CCC4=C32)cc1 [Example 15, 4-[(11β,17β)-17-Hydroxy-3-oxo-17-(pentafluoroethy)estra-4,9-dien-11-yl]-N,N-dimethylbenzene Sulphonamide] | – | – | –

The remaining lines, values behind:

Row | Structure (SMILES) | IC50 [1] [nM] | IC50 [2] [nM] | Progesterone receptor B (PR-B) Efficacy [1] [%] | Progesterone receptor A (PR-A) Efficacy [2] [%] | other results
4 | C[S+]([O-])c1ccc([C@H]2C[C@@]3(C)[C@@H](CC[C@@]3(O)C(F)(F)C(F)(F)F)[C@@H]3CCC4=CC(=O)CCC4=C32)cc1 (mixture of isomers) [Example 3, (11β,17β)-17-Hydroxy-11-{4-[(RS)-methylsulphinyl]phenyl}-17-(pentafluoroethy)estra-4,9-dien-3-one] | – | – | 100 | 100 | –
5 | CC(=O)c1ccc(C2CC3(C)C(CCC3(O)C(F)(F)C(F)(F)F)C3CCC4=CC(=O)CCC4=C23)cc1 (stereo not drawn) [11β-(4-Acetylphenyl)-20,20,21,21,21-pentafluoro-17-hydroxy-19-nor-17α-pregna-4,9-dien-3-one, reference compound] | 0.02 | 0.014 | – | – | –
6 | CSc1ccc([C@H]2C[C@@]3(C)[C@@H](CC[C@@]3(O)C(F)(F)C(F)(F)F)[C@@H]3CCC4=CC(=O)CCC4=C32)cc1 [Example 1, (11β,17β)-17-hydroxy-11-[4-(methylsulphanyl)phenyl]-17-(pentafluoroethyl)estra-4,9-dien-3-one] | – | – | 100 | 100 | Abortion rate (pregnant rats; [3]): 80%; Abortion rate (pregnant rats; [4]): 100%; Abortion rate (pregnant rats; [5]): 100%
7 | C[C@]12C[C@H](c3ccc(S(C)(=N)=O)cc3)C3=C4CCC(=O)C=C4CCC3C1CC[C@@]2(O)C(F)(F)C(F)(F)F (stereo partly drawn) [Example 8, (11β,17β)-17-Hydroxy-11-[4-(RS-methylsulphonimidoyl)phenyl]-17-(pentafluoroethyl)estra-4,9-dien-3-one] | – | – | 100 | 100 | Abortion rate (pregnant rats; daily dose 0.15 mg/kg s.c. or p.o.): 40%; Abortion rate (pregnant rats; [3]): 100%; Abortion rate (pregnant rats; [4]): 100%; Abortion rate (pregnant rats; [5]): 100%
8 | CSc1ccc(-c2ccc([C@H]3C[C@@]4(C)[C@@H](CC[C@@]4(O)C(F)(F)C(F)(F)F)[C@@H]4CCC5=CC(=O)CCC5=C43)cc2)cc1 [Example 9, (11β,17β)-17-Hydroxy-11-[4′-(methylsulphanyl)biphenyl-4-yl]-17-(pentafluoroethy)estra-4,9-dien-3-one] | 0.01 | 0.01 | – | – | –
